Experimental findings from patent publication US9333195B2 (priority 1999, dated 2016) are described below.

Molecules are shown by their SMILES. Where a name gives a salt, the structure may show the parent alone. Read-outs that look alike come from different tables or passages of the source.

This test has as its target human muscarinic receptors Hm3 (Homo sapiens (Human), UniProt P20309). Briefly: biochemical. It is filed as binding.
The mark [1] stands for this setting: read-out: BINDING TO RECEPTOR M3 (IC50 nM).

In general, IC50 refers to the concentration needed to halve the response being measured. On to `O=C(O[C@H]1C[N+]2(CCCOc3ccccc3)CCC1CC2)C(c1cccs1)c1cccs1` [Example 35, 3(R)-(2,2-Dithien-2-ylacetoxy)-1-(3-phenoxypropyl)-1-azoniabicyclo[2.2.2]octane; bromide], for which the IC50 under setting [1] was 13 nM.

Take `O=C(O[C@H]1C[N+]2(CCOCc3ccccc3)CCC1CC2)C(O)(c1cccs1)c1cccs1` [Example 84, 1-(2-Benzyloxyethyl)-3(R)-(2-hydroxy-2,2-dithien-2-ylacetoxy)-1-azoniabicyclo[2.2.2]octane; trifluoroacetate]: under setting [1], the IC50 worked out at 9.9 nM. Same read-out and setting: the same measure for `O=C(O[C@H]1C[N+]2(CCCOc3ccccc3O)CCC1CC2)C(O)(c1cccs1)c1cccs1` [Example 71, 3(R)-(2-Hydroxy-2,2-dithien-2-ylacetoxy)-1-[3-(2-hydroxyphenoxy)propyl]-1-azoniabicyclo[2.2.2]octane; trifluoroacetate]: 8.2 nM; for `O=C(O[C@H]1C[N+]2(CCCOc3ccccc3)CCC1CC2)C(c1ccccc1)c1ccccc1` [Example 1, 3 (R)-Diphenylacetoxy-1-(3-phenoxypropyl)-1-azoniabicyclo[2.2. 2]octane; bromide]: 31 nM.

`O=C(O[C@H]1C[N+]2(CC=Cc3ccccc3)CCC1CC2)C(O)(c1ccccc1)c1ccco1` (mixture of isomers) [Example 17, 3(R)-(2-Furan-2-yl-2-hydroxy-2-phenylacetoxy)-1-(3-phenylallyl)-1-azoniabicyclo[2.2.2]octane; bromide] had an IC50 of 14 nM. On to `O=C(O[C@H]1C[N+]2(CCCc3cccs3)CCC1CC2)C1(O)c2ccccc2Oc2ccccc21` [Example 138, 3(R)-(9-Hydroxy-9H-xanthene-9-carbonyloxy)-1-(3-thien-2-ylpropyl)-1-azoniabicyclo[2.2.2]octane; bromide], for which, under setting [1], the IC50 was found to be 19 nM. Regarding `O=C(O[C@H]1C[N+]2(CCCOc3ccccc3)CCC1CC2)C(O)(c1ccccc1)c1cccs1` (stereo partly drawn) [Example 8, 3(R)-(2-Hydroxy-2-phenyl-2-thien-2-ylacetoxy)-1-(3-phenoxypropyl)-1-azoniabicyclo[2.2.2]octane; bromide], under setting [1], the 50% inhibitory concentration (IC50) was 4.8 nM. The same measure, in the same setting: the figure for `O=C(O[C@H]1C[N+]2(CCCOc3ccccc3)CCC1CC2)C(O)(c1ccccc1)c1ccco1` (stereo partly drawn) [Example 20, 3(R)-(2-Furan-2-yl-2-hydroxy-2-phenylacetoxy)-1-(3-phenoxypropyl)-1-azoniabicyclo[2.2.2]octane; bromide] is 6.8 nM; for `O=C(O[C@H]1C[N+]2(CCCc3cccs3)CCC1CC2)C(O)(c1cccs1)c1cccs1` [Example 78, 3(R)-(2-Hydroxy-2,2-dithien-2-ylacetoxy)-1-(3-thien-2-ylpropyl)-1-azoniabicyclo[2.2.2]octane; bromide] it is 5 nM; for `CC1(C(=O)O[C@H]2C[N+]3(CCCOc4ccccc4)CCC2CC3)c2ccccc2-c2ccccc21` [Example 116, 3(R)-(9-Methyl-9[H]-fluorene-9-carbonyloxy)-1-(3-phenoxypropyl)-1-azoniabicyclo[2.2.2]octane; bromide] it is 23 nM.

Consider `CC(C(=O)O[C@H]1C[N+]2(CCCOc3ccccc3)CCC1CC2)(c1ccccc1)c1ccccc1` [Example 7, 3(R)-(2,2-Diphenylpropionyloxy)-1-(3-phenoxypropyl)-1-azoniabicyclo[2.2.2]octane; bromide], for which the IC50 under setting [1] came out at 22 nM.

For `O=C(O[C@H]1C[N+]2(CCOc3ccccc3)CCC1CC2)C(O)(c1ccccc1)c1ccco1` (stereo partly drawn) [Example 18, 3(R)-(2-Furan-2-yl-2-hydroxy-2-phenylacetoxy)-1-(2-phenoxyethyl)-1-azoniabicyclo[2.2.2]octane; bromide], the IC50 under setting [1] worked out at 6.6 nM. Take `O=C(O[C@H]1C[N+]2(CCCCc3ccccc3)CCC1CC2)C(O)(c1cccs1)c1cccs1` [Example 39, 3(R)-(2-Hydroxy-2,2-dithien-2-ylacetoxy)-1-(4-phenylbutyl)-1-azoniabicyclo[2.2.2]octane; bromide]: under setting [1], the IC50 worked out at 3.8 nM. Still for that read-out and setting: the same measure for `CC1(C(=O)O[C@H]2C[N+]3(CC=Cc4ccccc4)CCC2CC3)c2ccccc2-c2ccccc21` [Example 114, 3(R)-(9-Methyl-9[H]-fluorene-9-carbonyloxy)-1-(3-phenylallyl)-1-azoniabicyclo[2.2.2]octane; bromide]: 14 nM; for `O=C(O[C@H]1C[N+]2(CCCOc3ccc(F)cc3)CCC1CC2)C(O)(c1cccs1)c1cccs1` [Example 53, 1-[3-(4-Fluorophenoxy)propyl]-3(R)-(2-hydroxy-2,2-dithien-2-ylacetoxy)-1-azoniabicyclo[2.2.2]octane; chloride]: 5.6 nM; for `O=C(O[C@H]1C[N+]2(CCCn3cccc3)CCC1CC2)C(O)(c1cccs1)c1cccs1` [Example 74, 3(R)-(2-Hydroxy-2,2-dithien-2-ylacetoxy)-1-(3-pyrrol-1-ylpropyl)-1-azoniabicyclo[2.2.2]octane; trifluoroacetate]: 16 nM. Same read-out and setting: the figure for `O=C(O[C@H]1C[N+]2(CCCOc3ccccc3)CCC1CC2)C(O)(c1ccsc1)c1ccsc1` [Example 89, 3(R)-(2-Hydroxy-2,2-dithien-3-ylacetoxy)-1-(3-phenoxypropyl)-1-azoniabicyclo[2.2.2]octane; bromide] is 5.4 nM.
